{"source": "patent US11571460B2", "about": "(priority 2017, dated 2023)", "key": {"[1]": {"system": "splenocytes", "test": "Melittin binding study with rhodamine-bound melittin in splenocytes", "type": "cell-based, mice", "details": "10 nM cytochalasin D pretreatment vs DMSO control", "procedure": "After 1 hour, cells were harvested and the non-binding peptides were washed twice.\nNext, the cells were cultured with rhodamine-bound peptides and stained with CD11b-APC antibodies as described above.\nAnnexin-V was added to a sample before data collection to distinguish dead cells. […] tumor-associated macrophage was stained with CD86-PEcy7 (e-bioscience) or CD206-PercpCy5.5 (Biolegend). The cells were detected in FACS Calibur or FACS CantoII."}, "[2]": {"system": "bone marrow-derived macrophages", "test": "Phagocytosis assay with latex bead-FITC", "type": "cell-based, mouse", "details": "vs control group", "procedure": "Cells were smeared in a 96-assay well plate and treated as described above. The cells were pretreated for 30 minutes with or without cytochalasin D before treatment with latex bead-FITC (Sigma-Aldrich). After 2 hours of incubation, the cells were washed with PBS three times to remove foreign particles. Fluorescence of internalized beads was measured using emission of 527 nm after excitation of 485 nm in a fluorescent plate reader (Fluorskan Ascent FL) quenching with trypan blue."}}}
{"molecule": "C=C1[C@@H](C)[C@H]2[C@H](Cc3ccccc3)NC(=O)[C@]23[C@H](OC(C)=O)/C=C/[C@@](C)(O)C(=O)[C@@H](C)C/C=C/[C@H]3[C@@H]1O", "note": "[cytochalasin D, reference compound]", "values": [{"measurement": "melittin+CD11b+ double positive cells in total CD11b+ cell population", "setting": "[1]", "result": "no difference"}, {"measurement": "phagocytic capacity / phagocytosis index", "setting": "[2]", "result": "significantly lowered"}]}
